From ChEMBL document CHEMBL1201861, “Genomics of Drug Sensitity in Cancer screening data, Wellcome Trust Sanger Institute”

Experiments:
Test in all cases: cells
DSH1 = type: functional, cell-based, Homo sapiens; conditions: Homo sapiens, DSH1;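 note: growth inhibition of human DSH1 cells, measured with a cell viability readout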
Description: SANGER: Inhibition of human DSH1 cell growth in a cell viability assay.

DU-145 = type: functional, cell-based, Homo sapiens; conditions: Homo sapiens, DU-145
Description: SANGER: Inhibition of human DU-145 cell growth in a cell viability assay.

DU-4475 = type: functional, cell-based; conditions: Homo sapiens
Description: SANGER: Inhibition of human DU-4475 cell growth in a cell viability assay.

EPLC-272H = type: functional, cell-based; conditions: Homo sapiens
Description: SANGER: Inhibition of human EPLC-272H cell growth in a cell viability assay.

G-361 = type: functional, cell-based, Homo sapiens; conditions: Homo sapiens, G-361
GB-1 = type: functional, cell-based, Homo sapiens; conditions: Homo sapiens, GB-1;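 note: growth of GB-1 cells judged by a viability assay, IC50 marks the concentration inhibiting growth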
Description: SANGER: Inhibition of human GB-1 cell growth in a cell viability assay.

H-EMC-SS = type: functional, cell-based; conditions: Homo sapiens
Description: SANGER: Inhibition of human H-EMC-SS cell growth in a cell viability assay.

H4 = type: functional, cell-based; conditions: Homo sapiens
Description: SANGER: Inhibition of human H4 cell growth in a cell viability assay.

HDLM-2 = type: functional, cell-based; conditions: Homo sapiens;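 note: cell viability assay measuring suppression of HDLM-2 proliferation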
Description: SANGER: Inhibition of human HDLM-2 cell growth in a cell viability assay.

HT-1080 = type: functional, cell-based, Homo sapiens; conditions: Homo sapiens, HT-1080
Description: SANGER: Inhibition of human HT-1080 cell growth in a cell viability assay.

HT-144 = type: functional, cell-based, Homo sapiens; conditions: Homo sapiens, HT-144
Description: SANGER: Inhibition of human HT-144 cell growth in a cell viability assay.

HT55 = type: functional, cell-based, Homo sapiens; conditions: Homo sapiens, HT55;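 note: cell viability readout measuring growth inhibition of human HT55 cells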
Description: SANGER: Inhibition of human HT55 cell growth in a cell viability assay.

J82 = type: functional, cell-based; conditions: Homo sapiens;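 note: growth inhibition of J82 cells, read out with a cell viability assay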
Description: SANGER: Inhibition of human J82 cell growth in a cell viability assay.

LS-123 = type: functional, cell-based, Homo sapiens; conditions: Homo sapiens, LS-123
MEL-JUSO = type: functional, cell-based, Homo sapiens; conditions: Homo sapiens, MEL-JUSO;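 note: growth inhibition of human MEL-JUSO cells, read out with a cell viability assay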
Description: SANGER: Inhibition of human MEL-JUSO cell growth in a cell viability assay.

MOLT-13 = type: functional, cell-based; conditions: Homo sapiens;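 note: IC50 for suppression of MOLT-13 cell growth, read out with a cell viability assay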
Description: SANGER: Inhibition of human MOLT-13 cell growth in a cell viability assay.

NCI-H1395 = type: functional, cell-based, Homo sapiens; conditions: Homo sapiens, NCI-H1395;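 note: cell viability assay read-out quantifying reduced proliferation of human NCI-H1395 cells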
Description: SANGER: Inhibition of human NCI-H1395 cell growth in a cell viability assay.

NCI-H1573 = type: functional, cell-based; conditions: Homo sapiens;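 note: growth inhibition of NCI-H1573 cells, read out with a cell viability assay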
Description: SANGER: Inhibition of human NCI-H1573 cell growth in a cell viability assay.

NCI-H1792 = type: functional, cell-based, Homo sapiens; conditions: Homo sapiens, NCI-H1792;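 note: growth inhibition of human NCI-H1792 cells, read out as cell viability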
Description: SANGER: Inhibition of human NCI-H1792 cell growth in a cell viability assay.

NCI-H441 = type: functional, cell-based; conditions: Homo sapiens;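 note: growth inhibition of NCI-H441 cells, read out with a cell viability assay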
Description: SANGER: Inhibition of human NCI-H441 cell growth in a cell viability assay.

NCI-H522 = type: functional, cell-based, Homo sapiens; conditions: Homo sapiens, NCI-H522;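 note: cell viability assay measuring growth inhibition of human NCI-H522 cells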
Description: SANGER: Inhibition of human NCI-H522 cell growth in a cell viability assay.

PA-1 = type: functional, cell-based, Homo sapiens; conditions: Homo sapiens, PA-1;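 note: IC50 for suppression of PA-1 cell proliferation, determined with a cell viability read-out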
Description: SANGER: Inhibition of human PA-1 cell growth in a cell viability assay.

PC-14 = type: functional, cell-based, Homo sapiens; conditions: Homo sapiens, PC-14;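 note: cell viability assay measuring inhibition of PC-14 cell growth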
Description: SANGER: Inhibition of human PC-14 cell growth in a cell viability assay.

SK-MEL3 = type: functional, cell-based, Homo sapiens, SK-MEL-3; conditions: Homo sapiens, SK-MEL3;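 note: growth inhibition of human SK-MEL-3 cells, read out with a cell viability assay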
Description: SANGER: Inhibition of human SK-MEL-3 cell growth in a cell viability assay.

SNU-423 = type: functional, cell-based, Homo sapiens; conditions: Homo sapiens, SNU-423
Description: SANGER: Inhibition of human SNU-423 cell growth in a cell viability assay.

23132-87 = type: functional, cell-based, Homo sapiens; conditions: Homo sapiens
Description: SANGER: Inhibition of human 23132-87 cell growth in a cell viability assay.

A3-KAW = type: functional, cell-based; conditions: Homo sapiens;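 note: growth inhibition of human A3-KAW cells, read out with a cell viability assay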
Description: SANGER: Inhibition of human A3-KAW cell growth in a cell viability assay.

AU565 = type: functional, cell-based, Homo sapiens; conditions: Homo sapiens, AU565;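 note: cell viability assay measuring growth inhibition of human AU565 cells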
Description: SANGER: Inhibition of human AU565 cell growth in a cell viability assay.

TE-6 = type: functional, cell-based, Homo sapiens; conditions: Homo sapiens, TE-6;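 note: growth inhibition of TE-6 cells, read out with a cell viability assay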
Description: SANGER: Inhibition of human TE-6 cell growth in a cell viability assay.

ZR-75-30 = type: functional, cell-based; conditions: Homo sapiens;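 note: growth inhibition of ZR-75-30 cells, measured with a cell viability readout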
Description: SANGER: Inhibition of human ZR-75-30 cell growth in a cell viability assay.

no-11 = type: functional, cell-based, Homo sapiens; conditions: Homo sapiens;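 note: growth inhibition of human NO-11 cells, read out with a cell viability assay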
Description: SANGER: Inhibition of human no-11 cell growth in a cell viability assay.

CGTH-W-1 = type: functional, cell-based, Homo sapiens; conditions: Homo sapiens, CGTH-W-1;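 note: growth inhibition of human CGTH-W-1 cells measured by cell viability assay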
Description: SANGER: Inhibition of human CGTH-W-1 cell growth in a cell viability assay.

COLO-680N = type: functional, cell-based, Homo sapiens; conditions: Homo sapiens, COLO-680N;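 note: cell viability assay used to measure inhibition of COLO-680N cell growth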
Description: SANGER: Inhibition of human COLO-680N cell growth in a cell viability assay.

HSC-4 = type: functional, cell-based, Homo sapiens; conditions: Homo sapiens, HSC-4;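 note: growth inhibition of human HSC-4 cells, read out with a cell viability assay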
Description: SANGER: Inhibition of human HSC-4 cell growth in a cell viability assay.

| Compound | IC50 (DSH1) [µM] | IC50 (DU-145) [µM] | IC50 (DU-4475) [µM] | IC50 (EPLC-272H) [µM] | IC50 (GB-1) [µM] | IC50 (H-EMC-SS) [µM] | IC50 (H4) [µM] | IC50 (HDLM-2) [µM] | IC50 (HT-1080) [µM] | IC50 (HT-144) [µM] | IC50 (J82) [µM] | IC50 (LS-123) [µM] | IC50 (MOLT-13) [µM] | IC50 (NCI-H1395) [µM] | IC50 (NCI-H1573) [µM] | IC50 (NCI-H1792) [µM] | IC50 (NCI-H441) [µM] | IC50 (PA-1) [µM] | IC50 (PC-14) [µM] | IC50 (SK-MEL3) [µM] | further results |
| --- | --- | --- | --- | --- | --- | --- | --- | --- | --- | --- | --- | --- | --- | --- | --- | --- | --- | --- | --- | --- | --- |
| CCOc1nc(NC(=O)Cc2cc(OC)ccc2OC)cc(N)c1C#N | > 10 | > 10 | > 10 | > 10 | > 10 | > 10 | > 10 | > 10 | > 10 | > 10 | > 10 | > 10 | > 10 | > 10 | > 10 | > 10 | > 10 | > 10 | > 10 | > 10 | IC50 (G-361): > 10 µM; IC50 (HT55): > 10 µM; IC50 (MEL-JUSO): > 10 µM; IC50 (NCI-H522): > 10 µM; IC50 (SNU-423): > 10 µM; IC50 (23132-87): > 10 µM; IC50 (A3-KAW): > 10 µM; IC50 (AU565): > 10 µM; IC50 (TE-6): > 10 µM; IC50 (ZR-75-30): > 10 µM; IC50 (no-11): > 10 µM; IC50 (CGTH-W-1): > 10 µM; IC50 (COLO-680N): > 10 µM |
| CC(=O)O[C@@H]1[C@@H](OC(C)=O)[C@@H](O)[C@H](Oc2c(-c3ccc(O)cc3)oc3cc(O)cc(O)c3c2=O)O[C@H]1C | > 10 | > 10 | 7.65 | > 10 | > 10 | > 10 | > 10 | > 10 | > 10 | > 10 | > 10 | > 10 | > 10 | > 10 | > 10 | > 10 | > 10 | > 10 | > 10 | 7.74 | IC50 (G-361): > 10 µM; IC50 (MEL-JUSO): > 10 µM; IC50 (NCI-H522): > 10 µM; IC50 (23132-87): > 10 µM; IC50 (A3-KAW): > 10 µM; IC50 (AU565): > 10 µM; IC50 (TE-6): > 10 µM; IC50 (ZR-75-30): > 10 µM; IC50 (no-11): > 10 µM; IC50 (CGTH-W-1): > 10 µM; IC50 (COLO-680N): > 10 µM |
| O=C1N=C(NCc2cccs2)S/C1=C\c1ccc2ncccc2c1 | > 5 | > 5 | > 5 | > 5 | > 5 | > 5 | 1.16 | > 5 | > 5 | > 5 | > 5 | > 5 | > 5 | > 5 | > 5 | > 5 | > 5 | 1.23 | > 5 | > 5 | IC50 (HT55): > 5 µM; IC50 (NCI-H522): > 5 µM; IC50 (SNU-423): > 5 µM; IC50 (A3-KAW): > 5 µM; IC50 (AU565): > 5 µM; IC50 (TE-6): > 5 µM; IC50 (ZR-75-30): > 5 µM; IC50 (no-11): > 5 µM; IC50 (CGTH-W-1): > 5 µM; IC50 (COLO-680N): > 5 µM |
| CN(C)C/C=C/C(=O)Nc1cc2c(Nc3ccc(F)c(Cl)c3)ncnc2cc1O[C@H]1CCOC1 [AFATINIB] | 0.0331 | 0.448 | > 0.5 | > 0.5 | > 0.5 | > 0.5 | > 0.5 | 0.00572 | > 0.5 | > 0.5 | > 0.5 | > 0.5 | 0.24 | > 0.5 | > 0.5 | > 0.5 | > 0.5 | > 0.5 | 0.0567 | > 0.5 | IC50 (G-361): > 0.5 µM; IC50 (HSC-4): 0.0175 µM; IC50 (HT55): > 0.5 µM; IC50 (MEL-JUSO): > 0.5 µM; IC50 (SNU-423): > 0.5 µM; IC50 (23132-87): 0.319 µM; IC50 (A3-KAW): > 0.5 µM; IC50 (AU565): 0.085 µM; IC50 (TE-6): 0.402 µM; IC50 (ZR-75-30): 0.0955 µM; IC50 (no-11): > 0.5 µM; IC50 (CGTH-W-1): > 0.5 µM; IC50 (COLO-680N): > 0.5 µM |
| COc1ccc(-c2ccc3c(N4CCOC[C@@H]4C)nc(N4CCOC[C@@H]4C)nc3n2)cc1CO [AZD-8055] | > 2 | > 2 | 0.0805 | 0.431 | > 2 | > 2 | 0.601 | 1.21 | 0.525 | 1.17 | > 2 | 1.25 | 0.665 | > 2 | 0.902 | 0.971 | > 2 | 0.336 | 0.59 | 1.25 | IC50 (HT55): > 2 µM; IC50 (NCI-H522): 0.63 µM; IC50 (SNU-423): 0.814 µM; IC50 (A3-KAW): 0.297 µM; IC50 (AU565): > 2 µM; IC50 (TE-6): 1.71 µM; IC50 (ZR-75-30): > 2 µM; IC50 (no-11): > 2 µM; IC50 (CGTH-W-1): 1.56 µM; IC50 (COLO-680N): 1.82 µM |
| O=C(NOCC1CC1)c1ccc(F)c(F)c1Nc1ccc(I)cc1Cl [CI-1040] | > 10 | > 10 | 0.076 | 5 | > 10 | 1.3 | 5.04 | > 10 | 3.02 | 0.647 | > 10 | > 10 | 5.07 | > 10 | > 10 | 9.45 | > 10 | 5.64 | > 10 | 3.85 | IC50 (G-361): 0.368 µM; IC50 (HSC-4): 0.244 µM; IC50 (MEL-JUSO): 5.74 µM; IC50 (23132-87): 5.17 µM; IC50 (A3-KAW): > 10 µM; IC50 (AU565): > 10 µM; IC50 (TE-6): > 10 µM; IC50 (ZR-75-30): > 10 µM; IC50 (no-11): > 10 µM; IC50 (CGTH-W-1): 3.86 µM; IC50 (COLO-680N): > 10 µM |
| COc1ccc(C2=N[C@@H](c3ccc(Cl)cc3)[C@@H](c3ccc(Cl)cc3)N2C(=O)N2CCNC(=O)C2)c(OC(C)C)c1 [NUTLIN-3] | > 8 | > 8 | 2.8 | > 8 | > 8 | 6.39 | 0.663 | > 8 | 7.48 | 2.65 | > 8 | > 8 | > 8 | > 8 | > 8 | > 8 | > 8 | 0.871 | > 8 | > 8 | IC50 (HT55): > 8 µM; IC50 (NCI-H522): > 8 µM; IC50 (SNU-423): > 8 µM; IC50 (A3-KAW): 2.62 µM; IC50 (AU565): > 8 µM; IC50 (TE-6): > 8 µM; IC50 (ZR-75-30): > 8 µM; IC50 (no-11): > 8 µM; IC50 (CGTH-W-1): > 8 µM; IC50 (COLO-680N): > 8 µM |
| O=C(c1cc(Cc2n[nH]c(=O)c3ccccc23)ccc1F)N1CCN(C(=O)C2CC2)CC1 [OLAPARIB] | > 5 | > 5 | > 5 | > 5 | > 5 | > 5 | 4.89 | > 5 | > 5 | > 5 | > 5 | > 5 | > 5 | > 5 | > 5 | > 5 | > 5 | 4.25 | > 5 | > 5 | IC50 (HSC-4): > 5 µM; IC50 (HT55): > 5 µM; IC50 (MEL-JUSO): > 5 µM; IC50 (SNU-423): > 5 µM; IC50 (A3-KAW): > 5 µM; IC50 (AU565): > 5 µM; IC50 (TE-6): > 5 µM; IC50 (ZR-75-30): > 5 µM; IC50 (no-11): > 5 µM; IC50 (CGTH-W-1): > 5 µM; IC50 (COLO-680N): > 5 µM |
| C=CCNC1=C2C[C@@H](C)C[C@H](OC)[C@H](O)[C@@H](C)/C=C(\C)[C@H](OC(N)=O)[C@@H](OC)/C=C\C=C(/C)C(=O)NC(=CC1=O)C2=O [TANESPIMYCIN] | 0.0381 | > 1 | 0.0226 | 0.062 | > 1 | > 1 | 0.0309 | > 1 | 0.0844 | 0.0309 | 0.273 | > 1 | > 1 | 0.187 | 0.456 | 0.0962 | > 1 | 0.954 | 0.132 | 0.815 | IC50 (G-361): 0.227 µM; IC50 (HT55): > 1 µM; IC50 (MEL-JUSO): 0.0447 µM; IC50 (NCI-H522): 0.878 µM; IC50 (SNU-423): > 1 µM; IC50 (23132-87): 0.0695 µM; IC50 (A3-KAW): 0.342 µM; IC50 (AU565): > 1 µM; IC50 (TE-6): 0.257 µM; IC50 (ZR-75-30): > 1 µM; IC50 (no-11): 0.37 µM; IC50 (CGTH-W-1): 0.0235 µM; IC50 (COLO-680N): 0.194 µM |
